From patent publication US7442702B2, “Prostaglandin agonists” (priority 1997, dated 2008) come the findings set out here.

Experiment [1] has as its system expression of Bone Morphogenetic Protein 7 (BMP-7) in 293S cells transfected with EP2. Description: Kidney regeneration assay: BMP-7 expression (Northern blot) in 293S cells transfected with EP2. It counts as cell-based, human. The settings on record: EP2 293S cells, 10^−6M, RNA extracted at 8, 16 and 24 hours. Here is the method: (§1) Methods: 293S and EP293S cells are grown in Dulbecco's Modified Egale medium (DMEM, Gibco, BRL; Gaithersburg, Md.). […] Cells are harvested and RNA is extracted at 8, 16 and 24 hours. Northern blot analysis of total RNA ([…]) is carried out by probing the blots with ^32P-labeled BMP-7 probe. The blots are normalized for RNA loading by hybridization with ^32P-labeled 18s ribosomal RNA probe. […] Given the known role of BMP-7 in kidney regeneration and the ability of an prostaglandin agonist to induce BMP-7 expression in 293S kidney cells in a time and receptor specific manner indicates a role for prostaglandin agonist in kidney regeneration.

For experiment [2], the system named is expression of Bone Morphogenetic Protein 7 (BMP-7) in wild type 293S cells. Description: Kidney regeneration assay: BMP-7 expression (Northern blot) in wild type 293S cells. The experiment is classed as cell-based, human. Particulars: parental 293S cell line, 10^−6M, RNA extracted at 8, 16 and 24 hours. On the procedure: as §1

As for `CCCCC[C@H](O)/C=C/[C@H]1[C@H](O)CC(=O)[C@@H]1C/C=C\CCCC(=O)O` [PGE2, Prostaglandin E2], the “induction of expression of BMP-7” value in experiment [1] is reported as “induce the expression of BMP-7 in the EP2 293S cells in a time dependent manner”; in experiment [2], “generally not observed”.
